In US6794494B1, “Cancerous disease modifying antibodies” (Arius Research, Inc., priority 2003, dated 2004):

Tests used:
SW620 cells [1] = assay: Live/Dead cytotoxicity assay, purified antibody; settings: 5 days; four experiments in triplicate; concentration (10A304.7, Anti-Fas, 107.3, MPC-11 20 μg/mL; c225 5 μg/mL; Cycloheximide 100 μM)
BxPC-3 cells = settings: 5 days; four experiments in triplicate; concentration (10A304.7, Anti-Fas, 107.3, MPC-11 20 μg/mL; c225 5 μg/mL; Cycloheximide 100 μM)
MCF-7 cells = settings: 5 days; four experiments in triplicate; concentration (10A304.7, Anti-Fas, 107.3, MPC-11 20 μg/mL; c225 5 μg/mL; Cycloheximide 100 μM)
SW1116 cells [2] = assay: Live/Dead cytotoxicity assay, hybridoma supernatant; settings: hybridoma supernatant or controls, 5 days
HT-29 cells [3] = assay: Live/Dead cytotoxicity assay, purified antibody; settings: 5 days; four experiments in triplicate; concentration (10A304.7, Anti-Fas, 107.3, MPC-11 20 μg/mL; c225 5 μg/mL; Cycloheximide 100 μM)
MB-231 cells = settings: 5 days; four experiments in triplicate; concentration (10A304.7, Anti-Fas, 107.3, MPC-11 20 μg/mL; c225 5 μg/mL; Cycloheximide 100 μM)
HT-29 cells [4] = settings: human
DLD-1 cells = settings: 5 days; four experiments in triplicate; concentration (10A304.7, Anti-Fas, 107.3, MPC-11 20 μg/mL; c225 5 μg/mL; Cycloheximide 100 μM)
Lovo cells = settings: 5 days; four experiments in triplicate; concentration (10A304.7, Anti-Fas, 107.3, MPC-11 20 μg/mL; c225 5 μg/mL; Cycloheximide 100 μM)
SW1116 cells [5] = settings: 5 days; four experiments in triplicate; concentration (10A304.7, Anti-Fas, 107.3, MPC-11 20 μg/mL; c225 5 μg/mL; Cycloheximide 100 μM)
PC-3 cells = settings: 5 days; four experiments in triplicate; concentration (10A304.7, Anti-Fas, 107.3, MPC-11 20 μg/mL; c225 5 μg/mL; Cycloheximide 100 μM)
OVCAR cells = settings: 5 days; four experiments in triplicate; concentration (10A304.7, Anti-Fas, 107.3, MPC-11 20 μg/mL; c225 5 μg/mL; Cycloheximide 100 μM)
SW620 cells [6] = settings: human
colorectal cancer = settings: cited from earlier work

**Q.** With `C[C@@H]1C[C@@H]([C@H](O)CC2CC(=O)NC(=O)C2)C(=O)[C@@H](C)C1` [Cycloheximide] as the molecule, how does the “Cytotoxicity above background, Colon SW820” value (SW620 cells [1]) read?
**A.** ++++ (4/4 experiments with 15% cytotoxicity above background (++++))

**Q.** And the “Cytotoxicity above background, Pancreas BxPC-3” value (BxPC-3 cells)?
**A.** ++++ (4/4 experiments with 15% cytotoxicity above background (++++))

**Q.** And the “Cytotoxicity above background, Breast MCF-7” value (MCF-7 cells)?
**A.** ++++ (4/4 experiments with 15% cytotoxicity above background (++++))

**Q.** And the “Cytotoxicity (%) SW1116 Average” value (SW1116 cells [2])?
**A.** 17%

**Q.** What about the “Cytotoxicity above background, Colon HT-29” value (HT-29 cells [3]) of the same molecule?
**A.** ++++ (4/4 experiments with 15% cytotoxicity above background (++++))

**Q.** What about the “Cytotoxicity above background, Breast MB-231” value (MB-231 cells) of the same molecule?
**A.** ++++ (4/4 experiments with 15% cytotoxicity above background (++++))

**Q.** And the “Cytotoxicity (%) HT-29 Average” value (HT-29 cells [4])?
**A.** 23%

**Q.** And the “Cytotoxicity above background, Colon DLD-1” value (DLD-1 cells)?
**A.** ++++ (4/4 experiments with 15% cytotoxicity above background (++++))

**Q.** And the “Cytotoxicity above background, Colon Lovo” value (Lovo cells)?
**A.** ++++ (4/4 experiments with 15% cytotoxicity above background (++++))

**Q.** And the “Cytotoxicity above background, Colon SW1116” value (SW1116 cells [5])?
**A.** ++++ (4/4 experiments with 15% cytotoxicity above background (++++))

**Q.** And the “Cytotoxicity above background, Prostate PC-3” value (PC-3 cells)?
**A.** ++++ (4/4 experiments with 15% cytotoxicity above background (++++))

**Q.** What about the “Cytotoxicity above background, Ovary OVCAR” value (OVCAR cells) of the same molecule?
**A.** ++++ (4/4 experiments with 15% cytotoxicity above background (++++))

**Q.** What about the “Cytotoxicity (%) SW620 Average” value (SW620 cells [6]) of the same molecule?
**A.** −2%

B1: 17-1A: antibody with some specificity for adenocarcinomas, tested in colorectal cancer clinical trials (antibody, chains of the INN, looked up, V domains shown)
VH: QVQLQQSGAELVRPGTSVKVSCKASGYAFTNYLIEWVKQRPGQGLEWIGVINPGSGGTNYNEKFKGKATLTADKSSSTAYMQLSSLTSDDSAVYFCARDGPWFAYWGQGTLVTVSA
VL: NIVMTQSPKSMSMSVGERVTLTCKASENVVTYVSWYQQKPEQSPKLLIYGASNRYTGVPDRFTGSGSATDFTLTISSVQAEDLADYHCGQGYSYPYTFGGGTKLEIK
**Q.** What does the source list for B1?
**A.** clinical response, protocols using additional cyclophosphamide (colorectal cancer; 52 patients, with cyclophosphamide): only one complete response and two minor responses among 52 patients; clinical response, Phase 2 clinical trials (colorectal cancer; over 60 patients): only one patient having a partial response
